Test results reported in patent US11926627B1 (priority 2023, dated 2024).
Values after ≈ are worked out from the molar mass of the structure shown.

system: multidrug-resistant (MDR) strains of Mycobacterium tuberculosis; assay: microbe, parasite or virus in culture; type: cell-based; conditions: 192 h, read-out: Antitubercular activity against Mycobacterium tuberculosis MDR (MIC)

In order of falling MIC:
1. COC(=O)c1c(C(=O)OC)c2ccc3cc(C)ccc3n2c1C(=O)c1ccc(Br)cc1 [7-METHYL-QUIN2, Dimethyl 1-(4-bromobenzoyl)-7-methylpyrrolo[1,2-α]quinoline-2,3-dicarboxylate]  16 µg/mL (≈ 33.3 µM)
2. COC(=O)c1c(C(=O)OC)c2ccc3cc(C)ccc3n2c1C(=O)c1ccc(F)cc1 [7-METHYL-QUIN1, Dimethyl 1-(4-fluorobenzoyl)-7-methylpyrrolo[1,2-α]quinoline-2,3-dicarboxylate]  8 µg/mL (≈ 19.1 µM)
3. COC(=O)c1c(C(=O)OC)c2ccc3cc(C)ccc3n2c1C(=O)c1ccc(Cl)cc1 [7-METHYL-QUIN4, Dimethyl 1-(4-chlorobenzoyl)-7-methylpyrrolo[1,2-α]quinoline-2,3-dicarboxylate]  4 µg/mL (≈ 9.18 µM)
4. CCOC(=O)c1cc(C(=O)c2ccc(Cl)cc2)n2c1ccc1cc(C)ccc12 [7-METHYL-QUIN3, Ethyl 1-(4-chlorobenzoyl)-7-methylpyrrolo[1,2-α]quinoline-3-carboxylate]  4 µg/mL (≈ 10.2 µM)
